From publication PMC9956360, “Production of a Fungal Punicalagin-Degrading Enzyme by Solid-State Fermentation: Studies of Purification and Characterization” (Foods, 2023)

System: T1, EAH (EAH 1 and EAH 2), ellagitannin-acyl hydrolase identified as alpha-L-arabinofuranosidase
T1 construct: gene abfB; native secreted protein from solid-state fermentation, co-purified mixture; 499 residues each; domains ArabFuran-catal (20-334 / 20-333) and AbfB (352-493)
Assay: Lineweaver-Burk
Type: biochemical, Aspergillus niger
Conditions: mixture of two co-purified isoforms; temperature and pH of kinetics not stated
Excerpt: Lineweaver-Burk on EAH (EAH 1 and EAH 2), ellagitannin-acyl hydrolase identified as alpha-L-arabinofuranosidase

## COC(=O)c1cc(O)c(O)c(O)c1 [methyl gallate]
  Km: 6.66 mM
